Patent publication US8288375B2, “Fungicidal bicyclic pyrazoles” (E.I. du Pont de Nemours and Company, priority 2007, dated 2012)

Tests used:
[1] = tested on: Erysiphe graminis f. sp. tritici; test: Test A: wheat powdery mildew, test suspension sprayed on wheat seedlings, disease rating; assay type: in vivo; settings: 200 ppm test suspension, 100 = 100% disease control, 0 = no control; for pest or weed control at 200 ppm: Blumeria graminis, 192 h
[2] = tested on: Puccinia recondite f sp. tritici; test: Test B: wheat leaf rust, test suspension sprayed on wheat seedlings, disease rating; assay type: in vivo; settings: for pest or weed control at 200 ppm / Test B disease control rating: 200 ppm test suspension;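 for all read-outs here: 200 ppm unless marked * meaning 40 ppm or ** meaning 10 ppm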
Fusarium graminearum = test: whole plant or invertebrate; assay type: in vivo; settings: for Test C disease control rating: 200 ppm test suspension
Septoria nodorum = test: Test D: wheat glume blotch, test suspension sprayed on wheat seedlings, disease rating; assay type: in vivo; settings: 200 ppm test suspension; for pest or weed control at 200 ppm: Parastagonospora nodorum, 216 h
Septoria tritici = test: Test E: wheat leaf blotch, test suspension sprayed on wheat seedlings, disease rating; assay type: in vivo; settings: for pest or weed control at 200 ppm / Test E disease control rating: 200 ppm test suspension;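 for all read-outs here: 200 ppm unless marked * meaning 40 ppm or ** meaning 10 ppm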
Phytophthora infestans = test: whole plant or invertebrate; assay type: in vivo; settings: for Test J disease control rating: 200 ppm test suspension
Pythium aphanidermatum = test: Test L: bluegrass pythium blight, test suspension sprayed on bluegrass seedlings, disease rating; assay type: in vivo; settings: for pest or weed control at 200 ppm / Test L disease control rating: 200 ppm test suspension;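 for all read-outs here: 200 ppm unless marked * meaning 40 ppm or ** meaning 10 ppm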
[3] = tested on: Colletotrichum orbiculare; test: Test F: cucumber Colletotrichum anthracnose, test suspension sprayed on cucumber seedlings, disease rating; assay type: in vivo; settings: 200 ppm test suspension; for pest or weed control at 200 ppm: Colletotrichum orbiculare, 144 h
Botrytis cinerea = test: Test H: tomato Botrytis, test suspension sprayed on tomato seedlings, disease rating; assay type: in vivo; settings: 200 ppm test suspension; for pest or weed control at 200 ppm: Botrytis cinerea, 120 h
Rhizoctonia oryzae = test: Test I: turf brown patch, test suspension sprayed on creeping bent grass seedlings, disease rating; assay type: in vivo; settings: 200 ppm test suspension; for pest or weed control at 200 ppm: Waitea circinata, in Agrostis stolonifera, 120 h
Plasmopara viticola = test: Test K: grape downy mildew, grape seedlings inoculated and then sprayed, disease rating; assay type: in vivo; settings: 200 ppm test suspension
Alternaria solani = test: Test G: tomato early blight, test suspension sprayed on seedlings, disease rating; assay type: in vivo; settings: Alternaria solani, 168 h; for pest or weed control at 40 ppm: 40 ppm test suspension (*);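 for all read-outs here: 200 ppm unless marked * meaning 40 ppm or ** meaning 10 ppm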
[4] = Fusarium graminearum, in Triticum aestivum, 192 h, read-out: Test C disease control rating
[5] = Phytophthora infestans, in Solanum lycopersicum, 120 h, read-out: Test J disease control rating

Structure (SMILES)	pest or weed control at 200 ppm [1] [%]	pest or weed control at 200 ppm ([2]; Puccinia, 192 h) [%]	pest or weed control at 200 ppm (Fusarium graminearum; [4]) [%]	pest or weed control at 200 ppm (Septoria nodorum) [%]	pest or weed control at 200 ppm (Septoria tritici; Zymoseptoria tritici, 504 h) [%]	pest or weed control at 200 ppm (Phytophthora infestans; [5]) [%]	pest or weed control at 200 ppm (Pythium aphanidermatum; Pythium aphanidermatum, 120 h) [%]	melting point [°C]	Test A disease control rating [1] [%]	Test B disease control rating [2] [%]	Test C disease control rating (Fusarium graminearum) [%]	Test D disease control rating (Septoria nodorum) [%]	Test E disease control rating (Septoria tritici) [%]	Test F disease control rating [3] [%]	Test H disease control rating (Botrytis cinerea) [%]	Test I disease control rating (Rhizoctonia oryzae) [%]	Test J disease control rating (Phytophthora infestans) [%]	Test K disease control rating (Plasmopara viticola) [%]	Test L disease control rating (Pythium aphanidermatum) [%]	also measured
CC(C)Nc1nccc(-c2c(-c3ccc(F)cc3)nn3c2CCOC3)n1 [Compound 112, 4-[2-(4-fluorophenyl)-4,5-dihydro-7H-pyrazolo[1,5-c][1,3]oxazin-3-yl]-N-(1-methylethyl)-2-pyrimidinamine]	0	95	100	93	99	99	99	167 to 169	–	–	–	–	–	–	–	–	–	–	–	–
Fc1ccc(-c2nn3c(c2-c2ccnc(NC4CCC4)n2)CCCC3)cc1 [Compound 51, N-cyclobutyl-4-[2-(4-fluorophenyl)-4,5,6,7-tetrahydropyrazolo[1,5-a]pyridin-3-yl]-2-pyrimidinamine]	81	98	100	100	100	93	100	155 to 157	–	–	–	–	–	–	–	–	–	–	–	–
c1ccc(-c2nn3c(c2-c2ccnc(NC4CC4)n2)COCC3)cc1 [Compound 117, N-cyclopropyl-4-(6,7-dihydro-2-phenyl-4H-pyrazolo[5,1-c][1,4]oxazin-3-yl)-2-pyrimidinamine]	86	97	99	98	98	95	100	186 to 189	–	–	–	–	–	–	–	–	–	–	–	–
CCCC(C)Nc1nccc(-c2c(-c3ccc(F)cc3)nn3c2CCCC3)n1 (stereo not shown) [compound 4]	–	–	–	–	–	–	–	–	0	92	100	60	90	8	55	0	0	21	0	–
CCCNc1nccc(-c2c(-c3ccc(F)cc3)nn3c2CCCC3)n1 [compound 11]	–	–	–	–	–	–	–	–	93	99	100	99	98	83	97	44	100	0	100	–
CC(C)Nc1nccc(-c2c(-c3ccc(F)cc3)nn3c2COCC3)n1 [Compound 107, 4-[2-(4-fluorophenyl)-6,7-dihydro-4H-pyrazolo[5,1-c][1,4]oxazin-3-yl]-N-(1-methylethyl)-2-pyrimidinamine]	92	99	99	99	100	100	100	144 to 146	–	–	–	–	–	–	–	–	–	–	–	pest or weed control at 200 ppm [3]: 99%; pest or weed control at 40 ppm (Alternaria solani): 99%; pest or weed control at 200 ppm (Botrytis cinerea): 90%; pest or weed control at 200 ppm (Rhizoctonia oryzae): 80%
CC(C)(C)CNc1nccc(-c2c(-c3ccc(F)cc3)nn3c2CCCC3)n1 [compound 3]	–	–	–	–	–	–	–	–	47	91	99	0	72	0	0	0	0	0	0	–
Fc1ccc(-c2nn3c(c2-c2ccnc(NCC4CC4)n2)CCCC3)cc1 [Compound 24, N-(cyclopropylmethyl)-4-[2-(4-fluorophenyl)-4,5,6,7-tetrahydropyrazolo[1,5-a]pyridin-3-yl]-2-pyrimidinamine]	97	–	–	98	98	72	0	124 to 125	–	–	–	–	–	–	–	–	–	–	–	–
CC(C)Nc1nccc(-c2c(-c3ccccc3)nn3c2COCC3)n1 [Compound 116, 4-(6,7-dihydro-2-phenyl-4H-pyrazolo[5,1-c][1,4]oxazin-3-yl)-N-(1-methylethyl)-2-pyrimidinamine]	90	93	100	92	91	95	100	185 to 187	–	–	–	–	–	–	–	–	–	–	–	–
Fc1ccc(-c2nn3c(c2-c2ccnc(NC4CCCC4)n2)CCCC3)cc1 [compound 7]	–	–	–	–	–	–	–	–	82	99	100	98	99	90	82	0	93	0	0	–
CC(C)Nc1nccc(-c2c(-c3ccc(F)cc3)nn3c2CCCC3)n1 [Compound 8, 4-[2-(4-fluorophenyl)-4,5,6,7-tetrahydropyrazolo[1,5-a]pyridin-3-yl]-N-(1-methylethyl)-2-pyrimidinamine]	81	99	100	100	100	100	100	178 to 180	–	–	–	–	–	–	–	–	–	–	–	pest or weed control at 200 ppm [3]: 99%; pest or weed control at 40 ppm (Alternaria solani): 99%; pest or weed control at 200 ppm (Botrytis cinerea): 97%; pest or weed control at 200 ppm (Rhizoctonia oryzae): 62%
c1cc(-c2c(-c3ccsc3)nn3c2COCC3)nc(NC2CC2)n1 [Compound 121, N-cyclopropyl-4-[6,7-dihydro-2-(3-thienyl)-4H-pyrazolo[5,1-c][1,4]oxazin-3-yl]-2-pyrimidinamine]	0	94	99	84	93	97	99	182 to 184	–	–	–	–	–	–	–	–	–	–	–	pest or weed control at 200 ppm [3]: 15%; pest or weed control at 200 ppm (Alternaria solani; 200 ppm test suspension): 89%; pest or weed control at 200 ppm (Botrytis cinerea): 66%
CC(CO)Nc1nccc(-c2c(-c3ccc(F)cc3)nn3c2COCC3)n1 (stereo not shown) [Compound 108, 2-[[4-[2-(4-fluorophenyl)-6,7-dihydro-4H-pyrazolo[5,1-c][1,4]oxazin-3-yl]-2-pyrimidinyl]amino]-1-propanol]	43	99	98	87	99	77	100	124 to 126	–	–	–	–	–	–	–	–	–	–	–	–
Fc1ccc(-c2nn3c(c2-c2ccnc(Cl)n2)CCCN3)cc1	–	–	–	–	–	–	–	206 to 207	–	–	–	–	–	–	–	–	–	–	–	–
CN(C)c1nccc(-c2c(-c3ccc(F)cc3)nn3c2CCCC3)n1 [compound 14]	–	–	–	–	–	–	–	–	95	91	100	73	99	0	0	0	60	0	0	–
COC(=O)N1CCn2nc(-c3ccc(F)cc3)c(-c3ccnc(NC(C)C)n3)c2C1 [Compound 138, methyl 2-(4-fluorophenyl)-6,7-dihydro-3-[2-[(1-methylethyl)amino]-4-pyrimidinyl]pyrazolo[1,5-a]pyrazine-5(4H)-carboxylate]	0	–	–	99	–	–	–	88 to 89	–	–	–	–	–	–	–	–	–	–	–	pest or weed control at 40 ppm ([2]; Puccinia, 192 h, 40 ppm test suspension (*)): 98%; pest or weed control at 40 ppm (Fusarium graminearum; [4]): 86%; pest or weed control at 40 ppm (Septoria tritici; Zymoseptoria tritici, 504 h, 40 ppm test suspension (*)): 83%; pest or weed control at 40 ppm (Alternaria solani): 99%; pest or weed control at 200 ppm (Botrytis cinerea): 68%; pest or weed control at 200 ppm (Rhizoctonia oryzae): 0%; pest or weed control at 40 ppm (Phytophthora infestans; [5]): 88%; pest or weed control at 40 ppm (Pythium aphanidermatum; Pythium aphanidermatum, 120 h, 40 ppm test suspension (*)): 99%
